In paper PMC11457865, “The HIV latency reversing agent HODHBt inhibits the phosphatases PTPN1 and PTPN2” (JCI Insight, 2024):

Columns and labels:
[1] = target: T1, PTPN1 (PTP1B) (Homo sapiens, UniProt P18031); assay: fluorogenic phosphatase assay with Lineweaver-Burk kinetics; also CETSA on purified catalytic domain, CD4 T cell lysates, and TPP in live PBMCs and K562 cells; assay type: biochemical
T1 construct: catalytic domain (fluorogenic PTP1B catalytic domain assay kit, BPS Bioscience 79764; purified catalytic domain 1-301 for CETSA)
T1 sequence (P18031 1-301): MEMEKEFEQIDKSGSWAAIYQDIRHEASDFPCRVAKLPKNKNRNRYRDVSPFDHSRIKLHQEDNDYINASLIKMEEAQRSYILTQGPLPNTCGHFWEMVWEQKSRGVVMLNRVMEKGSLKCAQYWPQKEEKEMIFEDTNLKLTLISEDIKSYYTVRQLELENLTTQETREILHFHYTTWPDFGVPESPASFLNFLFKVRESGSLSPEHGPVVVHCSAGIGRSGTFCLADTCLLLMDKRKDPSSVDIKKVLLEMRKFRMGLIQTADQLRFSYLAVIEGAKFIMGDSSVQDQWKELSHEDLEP

[2] = target: T2, PTPN2 (TC-PTP) (Homo sapiens, UniProt P17706); assay: fluorogenic phosphatase assay with Lineweaver-Burk kinetics; also CETSA on purified catalytic domain (destabilization), CD4 T cell lysates, and TPP in live PBMCs and K562 cells; assay type: biochemical
T2 construct: catalytic domain (recombinant GST-tag TC-PTP, BPS Bioscience 30013)
T2 sequence (P17706 1-317 limits assumed): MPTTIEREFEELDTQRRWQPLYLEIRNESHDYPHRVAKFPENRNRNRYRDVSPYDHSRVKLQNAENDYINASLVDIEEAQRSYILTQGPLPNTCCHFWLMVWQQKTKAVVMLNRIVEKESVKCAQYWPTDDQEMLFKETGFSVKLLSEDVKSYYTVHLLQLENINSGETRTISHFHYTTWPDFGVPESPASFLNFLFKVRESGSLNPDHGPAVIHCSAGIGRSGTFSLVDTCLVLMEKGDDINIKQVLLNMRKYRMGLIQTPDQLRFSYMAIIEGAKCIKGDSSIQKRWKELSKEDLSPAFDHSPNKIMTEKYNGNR

IC50 [1]: 601 µM | IC50 [2]: 544 µM
Structure (SMILES): O=c1c2ccccc2nnn1O [HODHBt, 3-Hydroxy-1,2,3-benzotriazin-4(3H)-one]
